Measured values reported in ChEMBL document CHEMBL1201862, “PubChem BioAssay data set” (2004).
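How tested: cells in 96-well plates exposed to compound for 48 hours at five concentrations. Abbreviation: GI50, concentration required for 50% inhibition of growth.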 Activity calls are given as the source filed them. No stated cut-off is given here; in the data, active = GI50 up to about 1.1 µM and inactive = higher.

Legend:
Test in all cases: NCI anticancer screen, dose series, 48 h
[1] = tested on: UO-31
[2] = tested on: SK-MEL-5
[3] = tested on: A549
[4] = tested on: SK-MEL-28
[5] = tested on: HCT-15
[6] = tested on: PC-3
[7] = tested on: SNB-75
[8] = tested on: BT-549
[9] = tested on: OVCAR-5
[10] = tested on: IGROV-1
[11] = tested on: SF-268
[12] = tested on: KM12
[13] = tested on: HOP-62
[14] = tested on: SK-MEL-2
[15] = tested on: ACHN
[16] = tested on: Hs-578T
[17] = tested on: NCI-H522
[18] = tested on: RXF 393
[19] = tested on: HOP-92
[20] = tested on: KM-20L2

Compound | GI50 [1] | GI50 [2] | GI50 [3] | GI50 [4] | GI50 [5] [µM] | GI50 [6] | GI50 [7] | GI50 [8] | GI50 [9] | GI50 [10] | GI50 [11] | GI50 [12] | GI50 [13] | GI50 [14] | GI50 [15] | GI50 [16] | GI50 [17] | GI50 [18] | GI50 [19] | GI50 [20]
Cc1cc(-c2nc3ccccc3s2)ccc1N | 6.92 µM (inactive) | 21.9 µM (inactive) | 32.8 µM (inactive) | > 76.6 µM (inactive) | 42.3 | 26 µM (inactive) | 35.3 µM (inactive) | 48.3 µM (inactive) | 19.5 µM (inactive) | 0.0219 µM (active) | 52 µM (inactive) | 42.5 µM (inactive) | 49.9 µM (inactive) | 56.4 µM (inactive) | 45.4 µM (inactive) | > 100 µM (inactive) | 18.5 µM (inactive) | 50.8 µM (inactive) | > 100 µM (inactive) | 
O=[N+]([O-])c1ccc(S(=O)(=O)Cc2ccccc2)c([N+](=O)[O-])c1 | 1.58 µM (inactive) | 2.12 µM (inactive) | 11.4 µM (inactive) | 4.06 µM (inactive) | 1.82 | 1.78 µM (inactive) | 7.48 µM (inactive) | 2.1 µM (inactive) | 9.55 µM (inactive) | 2.6 µM (inactive) | 3.16 µM (inactive) | 7.38 µM (inactive) | 2.9 µM (inactive) | 2.82 µM (inactive) | 1.58 µM (inactive) | 4.12 µM (inactive) | 0.748 µM (active) | 1.75 µM (inactive) | 1.79 µM (inactive) | 
O=C(O)C12C3C4C1C1C2C3C41I (stereo not drawn) | > 100 µM (inactive) | > 100 µM (inactive) | > 100 µM (inactive) | > 100 µM (inactive) | > 100 |  | 70.6 µM (inactive) |  | > 100 µM (inactive) | > 100 µM (inactive) | > 100 µM (inactive) | > 100 µM (inactive) | > 100 µM (inactive) | > 100 µM (inactive) | > 100 µM (inactive) |  | > 100 µM (inactive) |  | > 100 µM (inactive) | > 100 µM (inactive)
NC(=O)C/C=C/CC(N)=O | > 100 µM (inactive) | > 100 µM (inactive) | > 100 µM (inactive) | > 100 µM (inactive) | > 100 | > 100 µM (inactive) | > 100 µM (inactive) | > 100 µM (inactive) | > 100 µM (inactive) | > 100 µM (inactive) | > 100 µM (inactive) | > 100 µM (inactive) | > 100 µM (inactive) | > 100 µM (inactive) | > 100 µM (inactive) | > 100 µM (inactive) | > 100 µM (inactive) | > 100 µM (inactive) | > 100 µM (inactive) | 
CC1(C)[C@@H]2C[C@H]1c1cnc(-c3ccccn3)cc1[C@H]2C(O)[C@@H]1c2cc(-c3ccccn3)ncc2[C@H]2C[C@@H]1C2(C)C (stereo partly drawn) | 0.0785 µM (active) | 0.0461 µM (active) | 0.154 µM (active) | 0.47 µM (active) | 0.0718 | 0.332 µM (active) | 0.773 µM (active) | 0.184 µM (active) | 1.11 µM (active) | 0.043 µM (active) | 0.126 µM (active) | 0.769 µM (active) | 0.073 µM (active) | 0.428 µM (active) | 0.113 µM (active) | 6.93 µM (inactive) | 0.142 µM (active) | 0.198 µM (active) | 0.322 µM (active) | 
COc1ccc(S(=O)(=O)N/N=C(\C)CN2C(=O)c3ccccc3C2=O)cc1OC | > 100 µM (inactive) | > 100 µM (inactive) | > 100 µM (inactive) | > 100 µM (inactive) | > 100 |  | > 100 µM (inactive) |  | > 100 µM (inactive) | > 100 µM (inactive) | > 100 µM (inactive) | > 100 µM (inactive) | > 100 µM (inactive) | > 100 µM (inactive) | > 100 µM (inactive) |  | > 100 µM (inactive) |  | > 100 µM (inactive) | > 100 µM (inactive)
Nc1nc(Cl)cc(NCC2(O)CCC2)n1 | 56.5 µM (inactive) | > 100 µM (inactive) | > 100 µM (inactive) | > 100 µM (inactive) | > 100 | > 100 µM (inactive) | > 100 µM (inactive) | > 100 µM (inactive) | > 100 µM (inactive) | > 100 µM (inactive) | > 100 µM (inactive) | > 100 µM (inactive) | > 100 µM (inactive) | > 100 µM (inactive) | > 100 µM (inactive) | > 100 µM (inactive) | > 100 µM (inactive) | > 100 µM (inactive) | > 100 µM (inactive) | 
O=S(=O)(N/N=C\c1c2ccccc2[n+]([O-])c2ccccc12)c1ccc(Cl)cc1 | > 100 µM (inactive) | > 100 µM (inactive) | > 100 µM (inactive) | > 100 µM (inactive) | > 100 |  | 26.1 µM (inactive) |  | > 100 µM (inactive) | > 100 µM (inactive) | > 100 µM (inactive) | > 100 µM (inactive) | 80 µM (inactive) | 46.1 µM (inactive) | 35.6 µM (inactive) |  | 93.8 µM (inactive) |  | > 100 µM (inactive) | > 100 µM (inactive)
